Laboratory results: ChEMBL document CHEMBL4699402, “Identification of N-benzothiazolyl-2-benzenesulfonamides as novel ABCA1 expression upregulators” (RSC Med Chem, 2020)
Activity calls are given as the source filed them. The calls are words filed in the database; no cut-off is given here.

Assays:
HepG2 [1] = assay: Cytotoxicity against human HepG2 cells assessed as reduction in cell viability incubated for 72 hrs measured by CCK8 assay; format: cell-based; conditions: hepg2, 72 h
[2] = Upregulation of ABCA1 expression in human HepG2 cells expressing luciferase plasmid incubated for 24 hrs by luciferase reporter gene assay; format: functional, cell-based; conditions: HepG2, 24 h
[3] = Upregulation of ABCA1 expression in human HepG2 cells expressing luciferase plasmid assessed as maximal increase incubated for 24 hrs by luciferase reporter gene assay relative to control; format: functional
[4] = Upregulation of ABCA1 expression in human HepG2 cells expressing luciferase plasmid assessed as maximal fold increase incubated for 24 hrs by luciferase reporter gene assay relative to control; format: functional
RAW264.7 [5] = assay: Upregulation of ABCA1 protein expression in mouse RAW264.7 cells incubated for 24 hrs by western blot analysis; format: functional, cell-based; conditions: dose microM 2.5-10, time 24.0 hrs
[6] = Upregulation of ABCA1 mRNA expression in mouse RAW264.7 cells assessed as maximal fold increase at 5 uM incubated for 24 hrs by RT-qPCR analysis relative to control; format: functional
[7] = Potency index, ration of WY06 EC50 to test compound EC50 for upregulation of ABCA1 expression in human HepG2 cells expressing luciferase plasmid incubated for 24 hrs by luciferase reporter gene assay; format: functional
RAW264.7 [8] = assay: Upregulation of ABCA1 mRNA expression in mouse RAW264.7 cells at 5 uM incubated for 24 hrs by RT-qPCR analysis; format: functional, cell-based
RAW264.7 [9] = assay: Induction of cholesterol efflux in mouse RAW264.7 cells assessed as decrease in cellular 22-NBD-cholesterol content at 2.5 to 10 uM incubated for 24 hrs by DAPI staining based fluorescence analysis; format: functional, cell-based; conditions: dose microM 2.5-10, time 24.0 hrs
[10] = Upregulation of ABCA1 protein expression in mouse RAW264.7 cells assessed as maximal increase at 10 uM incubated for 24 hrs by western blot analysis relative to control; format: functional
RAW264.7 [11] = assay: Upregulation of ApoA-I protein expression in mouse RAW264.7 cells at 2.5 to 10 uM by western blot analysis; format: functional, cell-based; conditions: dose microM 2.5-10
HepG2 [12] = assay: Upregulation of ABCA1 expression in human HepG2 cells expressing luciferase plasmid incubated for 24 to 48 hrs by luciferase reporter gene assay; format: functional, cell-based; conditions: dose microM 0.78-50, time hrs 24-48
[13] = Upregulation of ABCA1 mRNA expression in mouse RAW264.7 cells assessed as maximal upregulation at 10 uM incubated for 24 hrs by RT-qPCR analysis relative to control; format: functional
RAW264.7 [14] = assay: Upregulation of ABCA1 protein expression in mouse RAW264.7 cells at 2.5 to 10 uM incubated for 24 hrs by western blot analysis; format: functional, cell-based; conditions: dose microM 2.5-10, time 24.0 hrs
RAW264.7 [15] = assay: Upregulation of ABCA1 mRNA expression in mouse RAW264.7 cells at 2.5 to 10 uM incubated for 24 hrs by RT-qPCR analysis; format: functional, cell-based; conditions: dose microM 2.5-10, time 24.0 hrs

Row | Structure (SMILES) | Activity (HepG2 [1]) | EC50 [2] | Activity [3] | further results
1 | CCOC(=O)CN(c1nc2ccc(F)cc2s1)S(=O)(=O)c1ccc(N)cc1 | Non-Toxic | 0.97 µM | 167% | 
2 | C=CCN(c1nc2ccccc2s1)S(=O)(=O)c1cccc(N)c1 |  | > 50 µM | 136% | 
3 | C=CCN(c1nc2ccc(Cl)cc2s1)S(=O)(=O)c1ccc(N)cc1 |  | 10.6 µM | 135% | 
4 | N#CCN(c1nc2ccc(F)cc2s1)S(=O)(=O)c1ccc(N)cc1 |  | 2.57 µM | 163% | 
5 | N#CCN(c1nc2ccc(Cl)cc2s1)S(=O)(=O)c1cccc(N)c1 | Non-Toxic | 5.84 µM | 168% | fold change (FC) [4]: 1.68; Activity (RAW264.7 [5]): Dose-dependent effect; fold change (FC) [6]: 1.5
6 | N#CCN(c1nc2ccccc2s1)S(=O)(=O)c1cccc(N)c1 |  | > 50 µM | 124% | 
7 | C=CCN(c1nc2ccc(F)cc2s1)S(=O)(=O)c1cccc(N)c1 |  | 26 µM | 152% | 
8 | C=CCN(c1nc2ccc(F)cc2s1)S(=O)(=O)c1ccc(N)cc1 |  | 7.4 µM | 135% | 
9 | CCOC(=O)CN(c1nc2ccc(Cl)cc2s1)S(=O)(=O)c1ccc(N)cc1 | Non-Toxic | 0.37 µM | 174% | Ratio EC50 [7]: >=15; fold change (FC) [4]: 1.74; Activity (RAW264.7 [8]): Active; Activity (RAW264.7 [5]): Dose-dependent effect
10 | N#CCN(c1nc2ccc(Cl)cc2s1)S(=O)(=O)c1ccc(N)cc1 | Non-Toxic | 0.41 µM | 206% | Ratio EC50 [7]: >15; Activity (RAW264.7 [9]): Active; Activity [10]: 240%; Activity (RAW264.7 [11]): inactive; Activity (HepG2 [12]): Dose-dependent effect; Activity [13]: 210%; Activity (RAW264.7 [5]): Dose-dependent effect
11 | CCOC(=O)CN(c1nc2ccc(OC)cc2s1)S(=O)(=O)c1ccc(N)cc1 | Non-Toxic | 6.38 µM | 138% | fold change (FC) [4]: 1.38; Activity (RAW264.7 [14]): inactive; Activity (RAW264.7 [15]): inactive
12 | N#CCN(c1nc2ccccc2s1)S(=O)(=O)c1ccc(N)cc1 |  | 8.51 µM | 157% | 
13 | C=CCN(c1nc2ccccc2s1)S(=O)(=O)c1ccc(N)cc1 |  | 33.4 µM | 115% | 
14 | CCOC(=O)CN(c1nc2ccccc2s1)S(=O)(=O)c1ccc(N)cc1 | Non-Toxic | 1.24 µM | 209% | 
